Data reported in patent US5760248A, “Tachykinin antagonists” (A.Menarini Industrie Farmaceutiche Riunite S.r.l., priority 1993, dated 1998).

target: T1, NK1 receptor (Homo sapiens, UniProt P25103); experiment: [3H] SP binding assay in IM9 Cell Line (intact cells)
T1 construct: endogenous in cells; host or cells: IM9 cells (intact)
Protocol: Assessment of biological activity (antagonist activity on NK1 receptor) of compounds of this invention was performed by means of the following binding and functional assays:
[3H] SP binding assay in IM9 Cell Line
Binding assay was performed with intact cells as described by Goso et al (Eur.J.Pharmacol. 254,221,1994).

T1 sequence (P25103 whole entry): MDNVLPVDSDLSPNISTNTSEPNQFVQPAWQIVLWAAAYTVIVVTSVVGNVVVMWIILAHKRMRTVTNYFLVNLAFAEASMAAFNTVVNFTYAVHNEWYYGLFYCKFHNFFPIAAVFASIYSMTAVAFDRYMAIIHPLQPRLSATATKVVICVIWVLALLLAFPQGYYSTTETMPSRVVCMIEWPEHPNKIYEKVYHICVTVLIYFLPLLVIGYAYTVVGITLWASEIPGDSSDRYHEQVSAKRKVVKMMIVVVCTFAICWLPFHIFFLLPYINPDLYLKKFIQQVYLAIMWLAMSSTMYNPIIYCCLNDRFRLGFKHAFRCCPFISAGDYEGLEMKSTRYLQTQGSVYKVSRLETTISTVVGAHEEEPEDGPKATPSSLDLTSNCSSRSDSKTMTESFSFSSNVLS

Row | SMILES | pKi (Substance P antagonism Results)
1 | O=C(NC1CCCCC1C(=O)N[C@@H](Cc1ccccc1)C(=O)OCc1ccccc1)c1c[nH]c2ccccc12 (stereo partly drawn) [1 (fast)] | < 6
2 | O=C(Cc1ccccc1)N[C@H](Cc1ccccc1)NC(=O)C1CCCCC1NC(=O)c1c[nH]c2ccccc12 (stereo partly drawn) [2 (fast), 1-{N-(1(H)indol-3-yl-carbonyl) (1R,2S)-2-aminocyclohexanecarbonyl}-amino-1-(phenylacetyl)amino-2-phenyl-ethane] | < 6
3 | CN(C(=O)Cc1ccccc1)[C@H](Cc1ccc2ccccc2c1)NC(=O)C1CCCCC1NC(=O)c1c[nH]c2ccccc12 (stereo partly drawn) [3 (fast), 1-{N-(1(H)indol-3-yl-carbonyl) (1R,2S)-2-aminocyclohexanecarbonyl}-amino-1-(N-methyl-N-phenylacetyl)amino-2(2-naphthyl)ethane] | 8.4
4 | CN(C(=O)Cc1ccccc1)[C@H](Cc1ccc2ccccc2c1)NC(=O)C1CCCCC1NC(=O)c1c[nH]c2ccccc12 (stereo partly drawn) [3 (slow), 1-{N-(1(H)indol-3-yl-carbonyl)(1S,2R)-2-aminocyclohexanecarbonyl}-amino-1-(N-methyl-N-phenylacetyl) amino-2(2-naphthyl)ethane] | < 5
5 | O=C(NC1CCCCC1C(=O)N[C@H](COCc1cc(C(F)(F)F)cc(C(F)(F)F)c1)Cc1ccc2ccccc2c1)c1c[nH]c2ccccc12 (stereo partly drawn) [4 (fast)] | < 5
6 | C[C@H](C(=O)N(C)[C@H](Cc1ccc2ccccc2c1)NC(=O)C1CCCCC1NC(=O)c1c[nH]c2ccccc12)c1ccccc1 (stereo partly drawn) [9 (fast), 1-{N-(1(H)indol-3-yl-carbonyl)(1R,2S)-2-aminocyclohexanecarbonyl}-amino-1-(N-methyl-N-((S)2-phenylpropionyl))amino-2-(2-naphthyl)ethane] | < 5
7 | C[C@@H](C(=O)N(C)[C@H](Cc1ccc2ccccc2c1)NC(=O)C1CCCCC1NC(=O)c1c[nH]c2ccccc12)c1ccccc1 (stereo partly drawn) [10 (fast), 1-{N-(1(H)indol-3-yl-carbonyl)(1R,2S)-2-aminocyclohexane-carbonyl}-amino-1-(N-methyl-N-((R)2-phenylpropionyl))Ammino-2-(2-naphthyl)ethane] | 8.7
8 | CN(C(=O)Cc1ccc(Cl)cc1)[C@H](Cc1ccc2ccccc2c1)NC(=O)C1CCCCC1NC(=O)c1c[nH]c2ccccc12 (stereo partly drawn) [11 (fast), 1-{N-(1(H)indol-3-yl-carbonyl)(1R,2S)-2-aminocyclohexanecarbonyl}-amino-1-(N-methyl-N-4-chlorophenylacetyl)amino-2(2-naphthyl)ethane] | 8.4
9 | Cc1ccc(CC(=O)N(C)[C@H](Cc2ccc3ccccc3c2)NC(=O)C2CCCCC2NC(=O)c2c[nH]c3ccccc23)cc1 (stereo partly drawn) [12 (fast), 1-{N-(1(H)indol-3-yl-carbonyl)(1R,2S)-2-aminocyclohexanecarbonyl}-amino-1-(N-methyl-N-4-methylphenylacetyl)amino-2(2-naphthyl)ethane] | 8.7
